The source of these data is patent publication US20080063601A1, “Compositions and methods relating to polycystic kidney disease” (priority 2004, published 2008).

Test [1] deals with NFκB transactivation. Briefly: κB-luciferase reporter assay of TNF-α induced NFκB transactivation in HeLa cells. It counts as cell-based. How it is done: Having established that triptolide induced cell death is dependent upon free calcium concentration, Applicant next determined whether this was also a requirement for the inhibition of NFκB transcription. HeLa cells were transiently transfected with the κB-luciferase reporter construct for 8 hours before being washed and then cultured in the presence or absence of calcium containing medium for 16 hours. Triptolide (100 nM) was pre-incubated with cells for 1 hour before addition of 15 ng/ml of TNF-α for 4 hours.
As an additional experiment, transcriptional activity was also assessed by site-directed calcium buffering. HeLa cells were co-transfected with the κB-luciferase plasmid as well as one of the following constructs: GFP empty vector, NES-PV-GFP, or NLS-PV-GFP and proper GFP localization was confirmed. […]
NFκB transactivation was examined using the κB-luciferase reporter construct. […] Cells were assessed for NFκB driven luciferase expression after an additional five hours of incubation, at which time TNF-α had induced transcriptional activity by approximately 15-fold in control cells. […] The results thus far support a divergence of triptolide-mediated functions: the pathway regulating growth arrest/death is more sensitive to triptolide and calcium than the mechanism leading to transcriptional repression of NFκB.
A triple κB promoter-Luciferase reporter construct was a gift of Sankar Ghosh (Yale University). […] The transfection efficiency of HeLa was determined to be 80-90%, and all samples were normalized to protein concentration. Luciferase assays were performed using the Firefly luciferase kit as per manufacturer's protocol (Promega) and results obtained on the Wallac Victor2 1420 Multilabel Counter (Perkin Elmer).

The subject of test [2] is HeLa cells. The experiment in a line: HeLa cell viability by trypan blue dye exclusion. It is filed as cell-based. The method, then: Since extracellular calcium concentration can influence triptolide binding Applicant sought to determine if the presence of calcium influences the rate of triptolide-mediated apoptosis. To first establish the growth rate of HeLa in media±calcium, cell counts were performed over a 72 hour time course. Although calcium-free media caused cells to detach more easily, the overall growth rates were similar where cell doubling occurred every 24 hours on average (FIG. 5B). For triptolide experiments, cells were initially equilibrated in medium±calcium for 16 hours before the addition of 100 nM triptolide. Cell death was assessed by trypan blue dye exclusion at 24, 48, and 72 hours post drug treatment. In the presence of calcium-containing medium, triptolide induced at least 50% cell death by 24 hours with this trend continuing through later time points (FIG. 5C).
Applicant's results have implicated reversible binding of triptolide to a potential binding protein or complex that can be regulated by calcium. To understand if triptolide function is further separable between cell death and NFκB inhibition, Applicant examined the effect of concentration on these two endpoints. HeLa cells were cultured in the presence of 0, 10, 25, 50, or 100 nM of triptolide and separately assessed for cell death or the ability to suppress NFκB transactivation promoted by TNF-α. Following 24-48 hours of culture, viable cells were recovered and counted. Following 24 hours, triptolide concentrations from 25-100 nM caused greater than 50% of the cells to undergo cell death as assessed by detachment, clumping and the failure to exclude trypan blue dye. […] This is consistent with previous studies showing that low doses of triptolide cause cell cycle arrest rather than apoptosis (Kiviharju, et al., 2002, Clin Cancer Res 8, 2666-2674).
Based upon Applicant's studies examining the concentration dependent effect of triptolide on the two measured biological endpoints, cell death and transcriptional repression, Applicant wanted to determine how modulating triptolide's structure may also discriminate between the two pathways. For cell viability assays, HeLa cells were incubated with 0, 0.1, 1, or 10 μM of each analog or triptolide for 24 hours and then counted using trypan blue dye exclusion. […] NFκB transcriptional inhibition was measured using the κB-luciferase assay as previously described following 5 hours of incubation with each analog (0-10 μM) and TNF-α addition.
HeLa cells were incubated in DMEM or SMEM (Gibco) media+10% FBS and maintained at 37° C. in 5% CO2 for all experiments. HeLa cell viability was assessed by trypan blue dye exclusion, as well as by morphological examination (non-viable cells were rounded and detached from culture plate).

The test system of test [3] is HeLa cells. Briefly: [3H]-triptolide competition binding in intact HeLa cells. As to conditions: for displacement of / competition for [3H]-triptolide binding: 1 or 10 μM unlabeled competitor for 1 h before approx. 30 nM [3H]-triptolide for 1 h. The method, then: To gain insight into triptolide's mechanism of action Applicant sought to determine its specific binding activity utilizing a system employing [^3H]-triptolide. In addition to competition with 1 μM or 10 μM unlabeled triptolide, Applicant also measured the binding affinities of triptolide analogs (FIG. 3A). These analogs have been previously described and differ structurally from triptolide in the hydrolysis of the 12,13 epoxide (2), and formation of the ketone at the C-14 hydroxyl (3) (FIG. 3A). […] The effective interaction of these analogs with a presumed triptolide binding entity led us to their use in subsequent experiments addressing the mode of triptolide's biological functions.
Labeling studies were performed by the addition of approximately 30 nM [^3H]-triptolide directly into the culture media for one hour at 37° C. For cold competition studies, 1 μM triptolide was incubated with the cells for one hour before or after the addition of [^3H]-triptolide. Triptolide analog studies followed a similar protocol where concentrations used for competition were either 1 or 10 μM added before [^3H]-triptolide. Medium was removed and cells were washed 3× in cold PBS. Total cell lysates were prepared (150 mM NaCl, 50 mM Tris-HCl pH 7.4, 1 mM EDTA, 1% Triton X-100, and Complete™ protease inhibitors (Roche)) and protein was quantitated before measuring the [^3H]-triptolide binding activity via liquid scintillation.

Structures are written as SMILES.

On to `CC(C)C1(O)C(O)C2OC23C2(C)CCC4=C(COC4=O)C2CC2OC23C1O` (stereo not shown) [analog (2), Triol-Triptolide], for which the “effect on NFκB transcriptional activity” value in test [1] (1 μM, 5 hours with TNF-α) is on record as “no effect”. For the same compound, the “cell viability versus untreated control” value in test [2] (0.1 μM, 24 hours) was “not different from the untreated control”. Besides, the “effect on continued cell growth” value in test [2] (0.1 μM, out to 72 hours) is recorded as “overall growth suppressive effect”. Further, in test [2] (1 μM, 24 hours), the cell death entry is “greater than 50%”. For the same compound, in test [3], the “displacement of / competition for [3H]-triptolide binding” value is given as “efficiently competes”.

Turning to `CC(C)[C@]12O[C@H]1[C@@H]1O[C@@]13[C@@]1(C)CCC4=C(COC4=O)[C@@H]1C[C@@H]1O[C@@]13C2=O` [analog (3), Triptonide], the “profile of transcriptional repression (NFκB) compared with triptolide” value in test [1] (0.1-10 μM, 5 hours) is reported as “mimicked triptolide with no significant difference”. Also, the “effect on cells at low concentration” value in test [2] (25 nM) is listed as “only a growth suppressive effect”. Further, the “profile of cell death compared with triptolide” value in test [2] (0.1-10 μM, 24 hours) was “mimicked triptolide with no significant difference”. Further, in test [3] (1 μM competitor), the “competitive ability for [3H]-triptolide binding compared with triptolide” value is “higher competitive ability than triptolide itself”. The “displacement of / competition for [3H]-triptolide binding” value in test [3] is recorded as “near complete”.
